# Key:
# Aphis gossypii [1] = experiment: whole plant or invertebrate; assay type: in vivo; conditions: Aphis gossypii
# Experimental: The test was performed in duplicate.
# (§1) Method for Judging Synergistic Effects
# Laodelphax striatella [2] = experiment: Reference Test Example 18 Pest control test of Laodelphax striatella (wheat seedling root treatment); assay type: in vivo; conditions: wheat seedling roots treated; four days after release; 20 μg/seedling
# Experimental: The drug was absorbed from the roots for 72 hours, and then ten second instar larvae of Laodelphax striatella were each released thereto. […] The test was performed in duplicate.
# Spodoptera litura = experiment: Reference Test Example 2 Pest control test of Spodoptera litura (foliar treatment, single agent); assay type: in vivo; conditions: 72 h
# From the text: After an air drying process, third instar larvae were released thereto. […] Test in duplicate.
# Sogatella furcifera = experiment: Reference Test Example 6 Pest control test of Sogatella furcifera (foliar treatment, single agent); assay type: in vivo; conditions: 96 h
# From the text: (§2) After an air drying process, second instar larvae were released thereto. […] Test in duplicate.
# Aphis gossypii [3] = experiment: Reference Test Example 3 Pest control test of Aphis gossypii (foliar treatment, single agent); assay type: in vivo
# Experimental: After an air drying process, first instar larvae were released thereto. Thereafter, the larvae were left to stand in a thermostatic chamber (16 hours of light period-8 hours of dark period) at 25° C. […] Test in duplicate. Mortality (%)={number of dead larvae/(number of survived larvae+number of dead larvae)}×100
# [4] = tested on: Trigonotylus caelestialium; experiment: Reference Test Example 10 Pest control test of Trigonotylus caelestialium (dipping treatment); assay type: in vivo; conditions: 72 h
# Experimental: After an air drying process, the wheat seedling leaves and stems were placed into a glass tube, and two second instar larvae of Trigonotylus coelestialium were released to the same glass tube. After the larvae were released, the tube was lidded to leave the larvae to stand in a thermostatic chamber at 25° C. In order to supply water to the wheat during the test, water was given to the wheat from the bottom of the glass tube. […] Test in triplicate.
# [5] = tested on: Nilaparvata lugens resistant population II; experiment: Reference Test Example 19 Pest control test of Nilaparvata lugens, resistant population II (soil drench); assay type: in vivo; conditions: for Insecticidal effects against Nilaparvata lugens (death rate %), Resistant population II: soil drench, six days
# Experimental: (§3) Three days after the treatment, ten second instar larvae of Nilaparvata lugens, which had been collected outdoors and proliferated indoors, were each released to the rice seedling. […] Test in duplicate.
# (§4) Furthermore, for comparison, the test against a species of Nilaparvata lugens which is highly susceptible to imidacloprid was performed by the same method as described above, and the results thereof are shown in Table 45. […] Meanwhile, the death rates of imidacloprid at 0.05 mg/seedling were (susceptible species) 100%, (resistant population I) 38% and (resistant population II) 69%, and the insecticidal effect thereof was also low even at a high dose. From the above results, it became obvious that Compound P212 and Compound 1-20 have high insecticidal effects even against Nilaparvata lugens resistance against imidacloprid.
# (§5) Further, for the origin of test pests, bugs collected outdoors from the Kumamoto prefecture (I) in 2007 and from the Fukuoka prefecture (II) in 2005 as resistant population of Nilaparvata lugens, and bugs collected from the Kagoshima prefecture and then successively reared indoors for a long time as the imidacloprid susceptible population of Nilaparvata lugens were used.
# Nilaparvata lugens = experiment: Reference Test Example 5 Pest control test of Nilaparvata lugens (foliar treatment, single agent); assay type: in vivo; conditions: 144 h
# From the text: as §2
# [6] = tested on: Frankliniella occidentalis; experiment: Reference Test Example 9 Pest control test of Frankliniella occidentalis (foliar treatment, single agent); assay type: in vivo; conditions: 72 h
# Experimental: After an air drying process, first instar larvae were released to the leaf disk. Thereafter, the larvae were left to stand in a thermostatic chamber (16 hours of light period-8 hours of dark period) at 25° C. […] Test in duplicate. Mortality of larvae (%)={number of dead larvae/(number of survived larvae+number of dead larvae)}×100
# Laodelphax striatella [7] = experiment: whole plant or invertebrate; assay type: in vivo
# Experimental: After an air drying process, second instar larvae were released thereto. […] The test was performed in duplicate.
# as §1
# Laodelphax striatella [8] = experiment: Reference Test Example 4 Pest control test of Laodelphax striatella (foliar treatment, single agent); assay type: in vivo; conditions: Laodelphax striatellus, 72 h
# From the text: as §2
# [9] = tested on: Nilaparvata lugens susceptible species (highly susceptible to imidacloprid); experiment: Reference Test Example 19 Pest control test of Nilaparvata lugens, imidacloprid susceptible species (soil drench); assay type: in vivo; conditions: for Insecticidal effects against Nilaparvata lugens (death rate %), Susceptible population: soil drench, six days
# Experimental: as §3, §4, §5
# Laodelphax striatella [10] = experiment: whole plant or invertebrate; conditions: Laodelphax striatellus, soil, 72 h, soil irrigation
# Experimental: After the rice seedling was left to stand for 3 days, second instar larvae were released thereto. Thereafter, the larvae were left to stand in a thermostatic chamber (16 hours of light period-8 hours of dark period) at 25° C. […] The test was performed in duplicate. Mortality of larvae (%)={number of dead larvae/(number of survived larvae+number of dead larvae)}×100
# B: 100−(mortality of larvae or adults when treated only with each of imidacloprid, fipronil, chlorantraniliprole, spinosad, clothianidin, dinotefuran, sulfoxaflor, pymetrozine, thiamethoxam, flupyradifurone and cycloxaprid))
# as §1
# When the mortality against Laodelphax striatella in the case of a mixture with another agent exceeded the theoretical value by the Colby's equation, a synergistic effect was judged to be present.
# [11] = tested on: Nilaparvata lugens resistant population I; experiment: Reference Test Example 19 Pest control test of Nilaparvata lugens, resistant population I (soil drench); assay type: in vivo; conditions: for Insecticidal effects against Nilaparvata lugens (death rate %), Resistant population I: soil drench, six days
# Experimental: as §3, §4, §5
# Plutella xylostella = experiment: Reference Test Example 1 Pest control test of Plutella xylostella (foliar treatment, single agent); assay type: in vivo
# From the text: as §2
# [12] = assay type: in vivo; conditions: single agent 0.125 mg/seedling; soil irrigation; seven days after inoculation
compound,measurement,setting,value
"FC(F)(F)C(=S)/N=c1\ccccn1Cc1ccc(Cl)nc1 [Compound 1-20, N-[1-((6-chloropyridin-3-yl)methyl)pyridin-2(1H)-ylidene]-2,2,2-trifluoroethanethioamide]",mortality at 0.625 ppm,"Aphis gossypii [1]; foliar, 72 h, read-out: Mortality of single agent against Aphis gossypii",19%
same,Theoretical value by Colby's equation,Aphis gossypii [1]; single agent 0.625 ppm (other component 0),19%
same,"Laodelphax striatella (Reference Test Example 18), mortality of larvae",Laodelphax striatella [2],100%
same,mortality at 500 ppm,Spodoptera litura,≥ 80%
same,mortality at 100 ppm,Sogatella furcifera,≥ 80%
same,mortality at 100 ppm,"Aphis gossypii [3]; Aphis gossypii, foliar, 72 h",≥ 80%
same,"Aphis gossypii (Reference Test Example 3), mortality of larvae","Aphis gossypii [3]; foliar treatment, single agent",100%
same,mortality at 50 ppm,[4],≥ 80%
same,death rates of larvae,"[5]; resistant population II, 0.005 mg/seedling, six days after the release",85%
same,"Insecticidal effects against Nilaparvata lugens (death rate %), Resistant population II",[5]; throughput 0.005 mg/seedling,85%
same,"Insecticidal effects against Nilaparvata lugens (death rate %), Resistant population II",[5]; throughput 0.01 mg/seedling,100%
same,mortality at 100 ppm,Nilaparvata lugens,≥ 80%
same,mortality at 500 ppm,[6],≥ 80%
same,Theoretical value by Colby's equation,"Laodelphax striatella [7]; Laodelphax striatella foliar, single agent 0.625 ppm (other component 0)",90%
same,mortality at 0.625 ppm,"Laodelphax striatella [7]; Laodelphax striatellus, foliar, 72 h, read-out: Mortality of single agent against Laodelphax striatella",90%
same,mortality at 100 ppm,Laodelphax striatella [8],≥ 80%
same,death rates of larvae,"[9]; susceptible species, 0.005 mg/seedling, six days after the release",100%
same,"Insecticidal effects against Nilaparvata lugens (death rate %), Susceptible population",[9]; throughput 0.005 mg/seedling,100%
same,"Insecticidal effects against Nilaparvata lugens (death rate %), Susceptible population",[9]; throughput 0.01 mg/seedling,95%
same,mortality at 0.005 mg/seedling,"Laodelphax striatella [10]; read-out: Mortality of single agent against Laodelphax striatella, single agent 0.005 mg/Seedling",12%
same,death rates of larvae,"[11]; resistant population I, 0.005 mg/seedling, six days after the release",77%
same,"Insecticidal effects against Nilaparvata lugens (death rate %), Resistant population I",[11]; throughput 0.005 mg/seedling,77%
same,"Insecticidal effects against Nilaparvata lugens (death rate %), Resistant population I",[11]; throughput 0.01 mg/seedling,100%
same,mortality at 100 ppm,"Plutella xylostella; Plutella xylostella, foliar, 72 h",≥ 80%
same,"Plutella xylostella (Reference Test Example 1), mortality of larvae","Plutella xylostella; foliar treatment, single agent",100%
C=CCOC1=NS(=O)(=O)c2ccccc21 [Probenazole],"Preventive value (rice blast, number of lesions)",[12],96.7
same,mortality at 0.5 mg/seedling,"Laodelphax striatella [10]; read-out: Mortality of single agent against Laodelphax striatella, single agent 0.5 mg/Seedling",9%

# Source: patent US11771086B2, “Pest control composition including novel iminopyridine derivative” (priority 2012, dated 2023)
